Experimental findings from patent publication US8492371B2, “Compounds as cannabinoid receptor ligands” (priority 2009, dated 2013) are described below.

Where two headings read alike, the source gives them in different places.

In assay [1] the target is T1, human CB2 receptors (Homo sapiens, UniProt P34972).
T1 construct: expressed in transfected cells; host or cells: HEK293
In words: Human CB2 radioligand binding assay ([3H]CP-55,940 competition). As to the method: The CB1 and CB2 radioligand binding assays described herein are utilized to determine the selectivity of compounds of the present invention for binding to CB2 relative to CB1 receptors.
(§1) HEK293 cells stably expressing human CB2 receptors were grown until a confluent monolayer was formed. Briefly, the cells were harvested and homogenized in TE buffer (50 mM Tris-HCl, 1 mM MgCl2, and 1 mM EDTA) using a polytron for 2×10 second bursts in the presence of protease inhibitors, followed by centrifugation at 45,000×g for 20 minutes. The final membrane pellet was re-homogenized in storage buffer (50 mM Tris-HCl, 1 mM MgCl2, and 1 mM EDTA and 10% sucrose) and frozen at −78° C. until used. Saturation binding reactions were initiated by the addition of membrane preparation (protein concentration of 5 μg/well for human CB2) into wells of a deep well plate containing ([^3H]CP-55,940 (120 Ci/mmol, a nonselective CB agonist commercially available from Tocris) in assay buffer (50 mM Tris, 2.5 mM EDTA, 5 mM MgCl2, and 0.5 mg/mL fatty acid free BSA, pH 7.4). After 90 min incubation at 30° C., binding reaction was terminated by the addition of 300 μL/well of cold assay buffer followed by rapid vacuum filtration through a UniFilter-96 GF/C filter plates (pre-soaked in 1 mg/mL BSA for 2 hours). The bound activity was counted in a TopCount using Microscint-20. Saturation experiments were conducted with twelve concentrations of [^3H]CP-55,940 ranging from 0.01 to 8 nM. Competition experiments were conducted with 0.5 nM [^3H]CP-55,940 and five concentrations of displacing ligands selected from the range of 0.01 nM to 10 μM. The addition of 10 μM unlabeled CP-55,940 (Tocris, Ellisville, Mo.) was used to assess nonspecific binding.

The target in assay [2] is T2, rat CB2 receptors (Rattus norvegicus, UniProt Q9QZN9).
T2 construct: expressed in transfected cells; host or cells: HEK293
T2 sequence (Q9QZN9 1-360): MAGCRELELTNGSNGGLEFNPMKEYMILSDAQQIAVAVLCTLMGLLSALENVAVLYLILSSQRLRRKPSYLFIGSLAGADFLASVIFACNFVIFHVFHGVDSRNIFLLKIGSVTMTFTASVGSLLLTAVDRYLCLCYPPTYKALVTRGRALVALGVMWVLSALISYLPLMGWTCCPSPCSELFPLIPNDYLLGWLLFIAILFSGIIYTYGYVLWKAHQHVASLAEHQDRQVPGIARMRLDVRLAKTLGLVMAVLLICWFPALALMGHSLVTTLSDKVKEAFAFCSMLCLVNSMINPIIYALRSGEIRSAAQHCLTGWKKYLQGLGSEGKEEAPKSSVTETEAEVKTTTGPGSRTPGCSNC
Briefly: Rat CB2 radioligand binding assay ([3H]CP-55,940 competition). As to the method: as §1, with “expressing rat” for “expressing human”, “of 20” for “of 5”, “for rat” for “for human”, “containing [^3H]CP-55,940” for “containing ([^3H]CP-55,940”, “After 45” for “After 90”, “[…]” for “10 μM.”

[3] abbreviates: HEK293 membranes, 0.5 nM [3H]CP-55,940, read-out: human CB2 Ki.

Broadly, the Ki is the dissociation constant of the complex between target and ligand, obtained from inhibition or displacement.

T1 sequence (P34972 whole entry): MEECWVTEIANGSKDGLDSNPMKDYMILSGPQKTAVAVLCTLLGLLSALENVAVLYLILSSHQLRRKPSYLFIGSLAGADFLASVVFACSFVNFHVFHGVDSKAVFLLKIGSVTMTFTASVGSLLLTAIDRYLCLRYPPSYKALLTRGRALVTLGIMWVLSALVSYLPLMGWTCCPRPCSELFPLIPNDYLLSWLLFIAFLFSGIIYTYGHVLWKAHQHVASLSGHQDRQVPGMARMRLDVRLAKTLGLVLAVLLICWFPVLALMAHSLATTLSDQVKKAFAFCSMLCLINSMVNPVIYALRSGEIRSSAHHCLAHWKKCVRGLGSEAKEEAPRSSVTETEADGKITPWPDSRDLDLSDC

On to `COc1ccc(Cl)cc1C(=O)/N=c1\cc(C(C)(C)C)on1C[C@H]1CCCO1` [Example 11, N-[(3E)-5-tert-butyl-2-[(2R)-tetrahydrofuran-2-ylmethyl]isoxazol-3(2H)-ylidene]-5-chloro-2-methoxybenzamide], for which the Ki in assay [1] is 4.8 nM; in assay [2], 2.6 nM.

Regarding `COc1ccc(Cl)cc1C(=O)/N=c1\oc(C(C)(C)C)cn1C[C@H]1CCCO1` [Example 13, N-[(2Z)-5-tert-butyl-3-[(2R)-tetrahydrofuran-2-ylmethyl]-1,3-oxazol-2(3H)-ylidene]-5-chloro-2-methoxybenzamide], the Ki came out at 4.8 nM in assay [1] and 1.9 nM in assay [2].

For `CCOc1ccc(C(F)(F)F)cc1C(=O)/N=c1\cc(C(C)(C)C)n(C)n1C[C@H]1CCCO1` [Example 14, N-{(3E)-5-tert-butyl-1-methyl-2-[(2R)-tetrahydrofuran-2-ylmethyl]-1,2-dihydro-3H-pyrazol-3-ylidene}-2-ethoxy-5-(trifluoromethyl)benzamide], the values for the Ki in assay [1] and in assay [2] were 35 nM and 24 nM, respectively.

In the case of `Cn1c(C(C)(C)C)c/c(=N\C(=O)c2cccc(S(F)(F)(F)(F)F)c2)n1C[C@H]1CCCO1` [Example 15, N-{(3E)-5-tert-butyl-1-methyl-2-[(2R)-tetrahydrofuran-2-ylmethyl]-1,2-dihydro-3H-pyrazol-3-ylidene}-3-(pentafluoro-lambda˜6˜sulfanyl)benzamide], the results for the Ki in assay [1] and in assay [2] were 2.8 nM and 1.2 nM, respectively.

As to `Cn1c(C(C)(C)C)c/c(=N\C(=O)c2cc(C(F)(F)F)ccc2OC[C@H]2C[C@@H](O)C2)n1C[C@H]1CCCO1` [Example 16, N-{(3E)-5-tert-butyl-1-methyl-2-[(2R)-tetrahydrofuran-2-ylmethyl]-1,2-dihydro-3H-pyrazol-3-ylidene}-2-[(cis-3-hydroxycyclobutyl)methoxy]-5-(trifluoromethyl)benzamide], the Ki in assay [1] amounted to 147 nM; in assay [2] it was 84 nM.

As for `Cn1c(C(C)(C)C)c/c(=N\C(=O)c2cc(C(F)(F)F)ccc2OCC2CC(=O)C2)n1C[C@H]1CCCO1` [Example 17, N-{(3E)-5-tert-butyl-1-methyl-2-[(2R)-tetrahydrofuran-2-ylmethyl]-1,2-dihydro-3H-pyrazol-3-ylidene}-2-[(3-oxocyclobutyl)methoxy]-5-(trifluoromethyl)benzamide], the results for the Ki in assay [1] (setting [3]) and in assay [2] were 230 nM and 58 nM, respectively.

As for `CO[C@H]1C[C@@H](COc2ccc(C(F)(F)F)cc2C(=O)/N=c2\cc(C(C)(C)C)n(C)n2C[C@H]2CCCO2)C1` [Example 18], the results for the Ki in assay [1] and in assay [2] were 51 nM and 99 nM, respectively.

With `Cn1c(C(C)(C)C)c/c(=N\C(=O)c2cc(C(F)(F)F)ccc2OCC2CC(F)(F)C2)n1C[C@H]1CCCO1` [Example 19, N-{(3E)-5-tert-butyl-1-methyl-2-[(2R)-tetrahydrofuran-2-ylmethyl]-1,2-dihydro-3H-pyrazol-3-ylidene}-2-[(3,3-difluorocyclobutyl)methoxy]-5-(trifluoromethyl)benzamide], the Ki in assay [1] was determined as 22 nM; in assay [2], 11 nM.

In the case of `COC(C)(C)CCOc1ccc(C(F)(F)F)cc1C(=O)/N=c1\cc(C(C)(C)C)n(C)n1C[C@H]1CCCO1` [Example 20, N-{(3E)-5-tert-butyl-1-methyl-2-[(2R)-tetrahydrofuran-2-ylmethyl]-1,2-dihydro-3H-pyrazol-3-ylidene}-2-(3-methoxy-3-methylbutoxy)-5-(trifluoromethyl)benzamide], the inhibitory constant (Ki) was found to be 25 nM in assay [1] and 23 nM in assay [2].

Consider `Cn1c(C(C)(C)C)c/c(=N\C(=O)c2cc(C(F)(F)F)ccc2OCC(F)(F)F)n1C[C@H]1CCCO1` [Example 21, N-{(3E)-5-tert-butyl-1-methyl-2-[(2R)-tetrahydrofuran-2-ylmethyl]-1,2-dihydro-3H-pyrazol-3-ylidene}-2-(2,2,2-trifluoroethoxy)-5-(trifluoromethyl)benzamide], for which the figures for the Ki in assay [1] and in assay [2] were 63 nM and 22 nM, respectively.

In the case of `Cn1c(C(C)(C)C)c/c(=N\C(=O)c2cc(C(F)(F)F)ccc2OCCF)n1C[C@H]1CCCO1` [Example 22, N-{(3E)-5-tert-butyl-1-methyl-2-[(2R)-tetrahydrofuran-2-ylmethyl]-1,2-dihydro-3H-pyrazol-3-ylidene}-2-(2-fluoroethoxy)-5-(trifluoromethyl)benzamide], the Ki was 24 nM in assay [1] and 10 nM in assay [2].

As to `COCCOc1ccc(C(F)(F)F)cc1C(=O)/N=c1\cc(C(C)(C)C)n(C)n1C[C@H]1CCCO1` [Example 23, N-{(3E)-5-tert-butyl-1-methyl-2-[(2R)-tetrahydrofuran-2-ylmethyl]-1,2-dihydro-3H-pyrazol-3-ylidene}-2-(2-methoxyethoxy)-5-(trifluoromethyl)benzamide], the Ki amounted to 30 nM in assay [1] and 19 nM in assay [2].

With `Cn1c(C(C)(C)C)c/c(=N\C(=O)c2cc(C(F)(F)F)ccc2O)n1C[C@H]1CCCO1` [Example 24, N-{(3E)-5-tert-butyl-1-methyl-2-[(2R)-tetrahydrofuran-2-ylmethyl]-1,2-dihydro-3H-pyrazol-3-ylidene}-2-hydroxy-5-(trifluoromethyl)benzamide], the Ki in assay [1] (setting [3]) amounted to 260 nM; in assay [2], 29 nM.

Turning to `Cn1c(C(C)(C)C)c/c(=N\C(=O)c2cc(C(F)(F)F)ccc2OC(C)(C)C)n1C[C@H]1CCCO1` [Example 25, 2-tert-butoxy-N-{(3E)-5-tert-butyl-1-methyl-2-[(2R)-tetrahydrofuran-2-ylmethyl]-1,2-dihydro-3H-pyrazol-3-ylidene}-5-(trifluoromethyl)benzamide], the Ki in assay [1] stood at 101 nM; in assay [2], 40 nM.

On to `CO[C@@H](C)COc1ccc(C(F)(F)F)cc1C(=O)/N=c1\cc(C(C)(C)C)n(C)n1C[C@H]1CCCO1` [Example 28, N-{(3E)-5-tert-butyl-1-methyl-2-[(2R)-tetrahydrofuran-2-ylmethyl]-1,2-dihydro-3H-pyrazol-3-ylidene}-2-{[(2S)-2-methoxypropyl]oxy}-5-(trifluoromethyl)benzamide], for which the Ki in assay [1] worked out at 101 nM; in assay [2], 44 nM.

As to `CCOCCCOc1ccc(C(F)(F)F)cc1C(=O)/N=c1\cc(C(C)(C)C)n(C)n1C[C@H]1CCCO1` [Example 29, N-{(3E)-5-tert-butyl-1-methyl-2-[(2R)-tetrahydrofuran-2-ylmethyl]-1,2-dihydro-3H-pyrazol-3-ylidene}-2-(3-ethoxypropoxy)-5-(trifluoromethyl)benzamide], the Ki amounted to 4.8 nM in assay [1] and 14 nM in assay [2].

Turning to `COCCCOc1ccc(C(F)(F)F)cc1C(=O)/N=c1\cc(C(C)(C)C)n(C)n1C[C@H]1CCCO1` [Example 30, N-{(3E)-5-tert-butyl-1-methyl-2-[(2R)-tetrahydrofuran-2-ylmethyl]-1,2-dihydro-3H-pyrazol-3-ylidene}-2-(3-methoxypropoxy)-5-(trifluoromethyl)benzamide], the Ki in assay [1] stood at 3.8 nM; in assay [2] it was 11 nM.

For the molecule `CCOCCOc1ccc(C(F)(F)F)cc1C(=O)/N=c1\cc(C(C)(C)C)n(C)n1C[C@H]1CCCO1` [Example 31, N-{(3E)-5-tert-butyl-1-methyl-2-[(2R)-tetrahydrofuran-2-ylmethyl]-1,2-dihydro-3H-pyrazol-3-ylidene}-2-(2-ethoxyethoxy)-5-(trifluoromethyl)benzamide], the Ki in assay [1] was found to be 11 nM; in assay [2], 6.2 nM.
